Source: US8722123B2, “Antimicrobial composition and use as food treatment” (priority 2008, dated 2014)
Marks after values point to notes of the source that are not given here.

Columns and labels:
[1] = test system: S. typhimurium DT 104 on alfalfa seeds; test: S. typhimurium DT 104 inactivation on alfalfa seeds; format: cell-based, Salmonella typhimurium DT104; design: key to S. typhimurium DT 104 counts on seeds: +: Below the minimum detection level by direct plating (<1.7 log CFU/ml), but positive by enrichment culture.; −: Negative by direct plating and enrichment culture; conditions: for S. typhimurium DT 104 counts on seeds: alfalfa seeds inoculated with 10^8 CFU/g
alfalfa seed = test: Seed germination percentage; conditions: treated for 1 hour at 21° C.
Description: To determine the germination percentage, treated and control seeds (5 gram per replicate) were placed on the surface of a plastic tray. A second tray containing 200 ml of sterile deionized water was placed with tray with seeds and water dropped into lower tray to maintain uniform moisture. The seeds were incubated at approximately 22° C. for 72 h.

Structure (SMILES): [Ca+2].[O-]Cl.[O-]Cl [20,000 ppm, Ca(OCl)2, pH 11.4, calcium hypochlorite]
- S. typhimurium DT 104 counts on seeds ([1]; dried 4 h at 21° C., 0 min of exposure): +^b (Below the minimum detection level by direct plating (<1.7 log CFU/ml), but positive by enrichment culture.)
- S. typhimurium DT 104 counts on seeds ([1]; dried 4 h at 21° C., 1 min of exposure): −^c
- S. typhimurium DT 104 counts on seeds ([1]; dried 4 h at 21° C., 2 min of exposure): −
- S. typhimurium DT 104 counts on seeds ([1]; dried 4 h at 21° C., 5 min of exposure): −
- S. typhimurium DT 104 counts on seeds ([1]; dried 4 h at 21° C., 10 min of exposure): −
- S. typhimurium DT 104 counts on seeds ([1]; dried 4 h at 21° C., 20 min of exposure): −
- S. typhimurium DT 104 counts on seeds ([1]; dried 4 h at 21° C., 30 min of exposure): −
- S. typhimurium DT 104 counts on seeds ([1]; dried 4 h at 21° C., 60 min of exposure): −
- S. typhimurium DT 104 counts on seeds ([1]; dried 24 h at 21° C., 0 min of exposure): + (Below the minimum detection level by direct plating (<1.7 log CFU/ml), but positive by enrichment culture.)
- S. typhimurium DT 104 counts on seeds ([1]; dried 24 h at 21° C., 1 min of exposure): + (Below the minimum detection level by direct plating (<1.7 log CFU/ml), but positive by enrichment culture.)
- S. typhimurium DT 104 counts on seeds ([1]; dried 24 h at 21° C., 2 min of exposure): −
- S. typhimurium DT 104 counts on seeds ([1]; dried 24 h at 21° C., 5 min of exposure): −
- S. typhimurium DT 104 counts on seeds ([1]; dried 24 h at 21° C., 10 min of exposure): −
- S. typhimurium DT 104 counts on seeds ([1]; dried 24 h at 21° C., 20 min of exposure): −
- S. typhimurium DT 104 counts on seeds ([1]; dried 24 h at 21° C., 30 min of exposure): −
- S. typhimurium DT 104 counts on seeds ([1]; dried 24 h at 21° C., 60 min of exposure): −
- S. typhimurium DT 104 counts on seeds ([1]; dried 48 h at 21° C., 0 min of exposure): + (Below the minimum detection level by direct plating (<1.7 log CFU/ml), but positive by enrichment culture.)
- S. typhimurium DT 104 counts on seeds ([1]; dried 48 h at 21° C., 1 min of exposure): + (Below the minimum detection level by direct plating (<1.7 log CFU/ml), but positive by enrichment culture.)
- S. typhimurium DT 104 counts on seeds ([1]; dried 48 h at 21° C., 2 min of exposure): −
- S. typhimurium DT 104 counts on seeds ([1]; dried 48 h at 21° C., 5 min of exposure): −
- S. typhimurium DT 104 counts on seeds ([1]; dried 48 h at 21° C., 10 min of exposure): + (Below the minimum detection level by direct plating (<1.7 log CFU/ml), but positive by enrichment culture.)
- S. typhimurium DT 104 counts on seeds ([1]; dried 48 h at 21° C., 20 min of exposure): −
- S. typhimurium DT 104 counts on seeds ([1]; dried 48 h at 21° C., 30 min of exposure): −
- S. typhimurium DT 104 counts on seeds ([1]; dried 48 h at 21° C., 60 min of exposure): −
- S. typhimurium DT 104 counts on seeds ([1]; dried 72 h at 21° C., 0 min of exposure): −
- S. typhimurium DT 104 counts on seeds ([1]; dried 72 h at 21° C., 1 min of exposure): −
- S. typhimurium DT 104 counts on seeds ([1]; dried 72 h at 21° C., 2 min of exposure): −
- S. typhimurium DT 104 counts on seeds ([1]; dried 72 h at 21° C., 5 min of exposure): −
- S. typhimurium DT 104 counts on seeds ([1]; dried 72 h at 21° C., 10 min of exposure): −
- S. typhimurium DT 104 counts on seeds ([1]; dried 72 h at 21° C., 20 min of exposure): + (Below the minimum detection level by direct plating (<1.7 log CFU/ml), but positive by enrichment culture.)
- S. typhimurium DT 104 counts on seeds ([1]; dried 72 h at 21° C., 30 min of exposure): + (Below the minimum detection level by direct plating (<1.7 log CFU/ml), but positive by enrichment culture.)
- S. typhimurium DT 104 counts on seeds ([1]; dried 72 h at 21° C., 60 min of exposure): −
- Salmonella level after treatment ([1]; seeds dried 24 h, 48 h, or 72 h, 5 min): undetectable by direct plating, but still detectable by enrichment culture
- germination rate of alfalfa seed (alfalfa seed): 47.3%
